The record followed here is patent US6180651A, “Diarylmethylidenefuran derivatives, processes for their preparation and their uses in therapeutics” (Bristol-Myers Squibb, priority 1996, dated 2001).

Assay [1] concerns carrageenin oedema. The assay is described as follows: anti-inflammatory activity, carrageenin oedema test. Type of assay: in vivo. The conditions noted are these: rat, oral; dose which induces 50% decrease in the volume of the oedema; read-out: Anti-inflammatory activity ID50. The method, then:
(§1) The anti-inflarnmatory activity of the compounds of the Examples was evaluated by the carrageenin oedema method and the analgesic activity was evaluated by the kaolin arthritis method.
Anti-inflammatory Activity:
The anti-inflammatory activity is evaluated in the rat by the carrageenin oedema test. The product is administered orally at a rate of 2.5 ml/100 g (n=6 animals per dose) 2 h 30 min after oral hyperhydration (2.5 m/100 g); one hour after administration of the product, the oedema is induced by the plantar subcutaneous injection of 2% aqueous carrageenin solution. The results are expressed as the ID50, the dose in mg/kg which induces 50% decrease in the volume of the oedema, calculated by linear regression using the maximum oedema volume obtained for each product tested.

The subject of assay [2] is kaolin arthritis. The assay is described as follows: analgesic activity, kaolin arthritis test. Type of assay: in vivo. The conditions noted are these: rat, oral; dose which induces 50% decrease of the maximum quotation in the control batch; read-out: Analgesic activity DE50. As to the method:
as §1
The analgesic activity is evaluated in the rat by the kaolin arthritis test. Thirty minutes after the intra-articular administration of 10% aqueous kaolin suspension, the product is administered orally at a rate of 1 ml/100 g (n=10 animals per dose). The results are expressed as DE50, the dose in mg/kg which induces 50% decrease of the maximum quotation in the control batch, calculated by linear regression.

For assay [3], the target named is T1, COX-2 (Ovis aries, UniProt P79208).
T1 construct: purified enzyme from ewe placenta; from tissue; host or cells: ewe placenta (purified enzyme)
T1 sequence (P79208 17-603): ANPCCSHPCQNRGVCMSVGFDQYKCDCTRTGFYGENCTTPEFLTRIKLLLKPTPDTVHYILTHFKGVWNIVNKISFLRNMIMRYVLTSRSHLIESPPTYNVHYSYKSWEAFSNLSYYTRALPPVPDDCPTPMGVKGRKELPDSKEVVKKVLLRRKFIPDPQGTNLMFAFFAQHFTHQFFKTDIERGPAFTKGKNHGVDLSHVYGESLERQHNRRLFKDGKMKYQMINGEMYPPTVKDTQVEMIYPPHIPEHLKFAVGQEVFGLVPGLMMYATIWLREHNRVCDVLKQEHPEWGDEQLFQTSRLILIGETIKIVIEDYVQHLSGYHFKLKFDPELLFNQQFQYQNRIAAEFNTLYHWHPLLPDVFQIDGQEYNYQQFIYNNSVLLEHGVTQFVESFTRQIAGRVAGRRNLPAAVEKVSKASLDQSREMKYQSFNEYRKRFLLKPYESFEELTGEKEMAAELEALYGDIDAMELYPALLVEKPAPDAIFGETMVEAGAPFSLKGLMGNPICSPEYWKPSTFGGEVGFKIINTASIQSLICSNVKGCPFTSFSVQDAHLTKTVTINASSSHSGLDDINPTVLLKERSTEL
The assay is described as follows: inhibition of COX-2 enzymatic activity (PGE2 by EIA). Type of assay: biochemical, ewe. The conditions noted are these: for IC50: purified enzyme from ewe placenta, arachidonic acid 4 μM, n=1 to 4 determinations; for Selectivity COX-1/COX-2 ratio: ratio of IC50 COX-1 / IC50 COX-2. As to the method: (§2) Inhibition of the COX-1 and COX-2 Enzymatic Activities The test molecule is preincubated for 10 minutes at 25° C. with 2 U of COX-1 (purified enzyme from ram seminal vesicles) or 1 U of COX-2 (purified enzyme from ewe placenta). Arachidonic acid (6 μM for COX-1, 4 μM for COX-2) is added to the reaction medium and incubation is carried out for 5 minutes at 25° C. When incubation has ended, the enzymatic reaction is stopped by the addition of 1 N HCl and the PGE2 produced is determined by EIA. The results are expressed as IC50, the concentration in nM which corresponds to 50% inhibition of the maximal enzymatic activity on the COX-1 and COX-2 (n=1 to 4 determinations).

Assay [4] has as its target T2, COX-1 (Ovis aries, UniProt P05979).
T2 construct: purified enzyme from ram seminal vesicles; from tissue; host or cells: ram seminal vesicles (purified enzyme)
T2 sequence (P05979 25-600): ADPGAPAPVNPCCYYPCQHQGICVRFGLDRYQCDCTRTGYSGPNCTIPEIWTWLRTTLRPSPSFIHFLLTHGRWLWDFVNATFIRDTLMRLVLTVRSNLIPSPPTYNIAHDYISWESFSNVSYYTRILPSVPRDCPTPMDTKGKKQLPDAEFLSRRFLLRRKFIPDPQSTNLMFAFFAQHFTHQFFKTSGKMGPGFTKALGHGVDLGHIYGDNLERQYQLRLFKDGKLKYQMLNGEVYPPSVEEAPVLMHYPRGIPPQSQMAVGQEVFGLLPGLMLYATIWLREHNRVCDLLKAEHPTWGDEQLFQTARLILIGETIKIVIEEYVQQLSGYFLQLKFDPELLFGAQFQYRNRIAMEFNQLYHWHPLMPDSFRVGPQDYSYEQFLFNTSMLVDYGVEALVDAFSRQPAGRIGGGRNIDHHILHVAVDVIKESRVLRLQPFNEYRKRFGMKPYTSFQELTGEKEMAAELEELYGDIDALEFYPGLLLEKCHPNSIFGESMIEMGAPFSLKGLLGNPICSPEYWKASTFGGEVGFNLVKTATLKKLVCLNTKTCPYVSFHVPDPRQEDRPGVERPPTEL
The assay is described as follows: inhibition of COX-1 enzymatic activity (PGE2 by EIA). The assay is classed as biochemical. As to conditions: purified enzyme from ram seminal vesicles; arachidonic acid 6 μM; n=1 to 4 determinations. As to the method: as §2

As usually defined, the IC50 is the midpoint of a concentration-inhibition curve. A high value points to weaker potency in that assay.

Regarding `CS(=O)(=O)c1ccc(/C(=C2/CCOC2=O)c2ccc(Cl)cc2)cc1` [8 (E isomer), (E)-3-[1-(4-chlorophenyl)-1-(4-methanesulphonylphenyl)methylidene]dihydrofuran-2-one], the ED50 in assay [1] is above 30 mg/kg.

In the case of `CS(=O)(=O)c1ccc(/C(=C2\CCOC2=O)c2cccc(F)c2)cc1` [13 (Z isomer), (Z)-3-[1-(3-fluorophenyl)-1-(4-methanesulphonylphenyl)methylidene]dihydrofuran-2-one], the ED50 in assay [1] was found to be 3.9 mg/kg; in assay [2], 14.1 mg/kg. The half-maximal inhibitory concentration (IC50) is 0.61 µM in assay [3] and above 100 µM in assay [4]. The “Selectivity COX-1/COX-2 ratio” value in assay [3] is given as above 164.

Regarding `CS(=O)(=O)c1ccc(/C(=C2\CCOC2=O)c2ccc(Cl)c(Cl)c2)cc1` [18 (Z isomer), (Z)-3-[1-(3,4-Dichlorophenyl)-1-(4-methanesulphonylphenyl)-methylidene]dihydrofuran-2-one], the ED50 in assay [1] is above 30 mg/kg; in assay [2] it was 6.1 mg/kg. For the same compound, the half-maximal inhibitory concentration (IC50) in assay [3] worked out at 0.132 ± 0.032 µM; in assay [4] it was 73.2 µM. The “Selectivity COX-1/COX-2 ratio” value in assay [3] is listed as 555.

As for `CS(=O)(=O)c1ccc(/C(=C2/CCOC2=O)c2cccc(Cl)c2)cc1` [23 (E), (E)-3-[1-(3-chlorophenyl)-1-(4-methanesulphonylphenyl)methyl-idene]-dihydrofuran-2-one], in assay [3], the midpoint of inhibition, the IC50, lay at 0.627 µM and the “Selectivity COX-1/COX-2 ratio” value is above 159. The same compound gave an IC50 in assay [4] above 100 µM.

`CS(=O)(=O)c1ccc(/C(=C2\CCOC2=O)c2cccc(Cl)c2)cc1` [23 (Z isomer), (Z)-3-[1-(3-Chlorophenyl)-1-(4-methanesulphonylphenyl)-methylidene]dihydrofuran-2-one]: the ED50 in assay [1] stood at 9.3 mg/kg; in assay [2] it was 7.2 mg/kg.

For the compound `CS(=O)(=O)c1ccc(/C(=C2\CCOC2=O)c2ccccc2)cc1` [28 (E isomer), (E)-3-[1-Phenyl-1-(4-methanesulphonylphenyl)methylidene]-dihydrofuran-2-one], the values for the ED50 in assay [1] and in assay [2] were 10.1 mg/kg and 26.1 mg/kg, respectively. For the same compound, the IC50 in assay [3] was 18.4 µM; in assay [4], above 10 µM. Moreover, the “Selectivity COX-1/COX-2 ratio” value in assay [3] is above 0.5.

Turning to `CC1(C)C/C(=C(/c2ccc(F)cc2)c2ccc(S(C)(=O)=O)cc2)C(=O)O1` [31 (E isomer), (E)-5,5-Dimethyl-3-[1-(4-fluorophenyl)-1-(4-methanesulphonylphenyl)methylidene]dihydrofuran-2-one], the figures for the ED50 in assay [1] and in assay [2] were 3.1 mg/kg and 14.2 mg/kg, respectively. Also, the IC50 was 0.78 µM in assay [3] and above 100 µM in assay [4]. For the same compound, in assay [3], the “Selectivity COX-1/COX-2 ratio” value is given as above 128.

Consider `CCC1C/C(=C(/c2ccc(F)cc2)c2ccc(S(C)(=O)=O)cc2)C(=O)O1` (stereo not drawn) [34 (E isomer), (E)-5-Ethyl-3-[1-(4-fluorophenyl)-1-(4-methanesulphonylphenyl)methylidene]dihydrofuran-2-one], for which, in assay [2], the ED50 stood at 38.8 mg/kg. Also, the half-inhibitory concentration (IC50) in assay [3] was 0.694 µM; in assay [4], above 100 µM. Besides, the “Selectivity COX-1/COX-2 ratio” value in assay [3] is above 144.

On to `Cc1cccc(/C(=C2/CCOC2=O)c2ccc(S(C)(=O)=O)cc2)c1` [49 (Z isomer), (Z)-3-[1-(3-Methylphenyl)-1-(4-methanesulphonylphenyl)-methylidene]dihydrofuran-2-one], for which the ED50 in assay [1] and in assay [2] was above 30 mg/kg in each case. Besides, the half-inhibitory concentration (IC50) in assay [3] was 0.418 µM; in assay [4], above 100 µM. Also, in assay [3], the “Selectivity COX-1/COX-2 ratio” value was above 239.

As for `CS(=O)(=O)c1ccc(/C(=C2\CCOC2=O)c2ccc(F)c(F)c2)cc1` [54 (Z isomer), (Z)-3-[1-(3,4-Difluorophenyl)-1-(4-methanesulphonylphenyl)-methylidene]dihydrofuran-2-one], the ED50 was above 30 mg/kg in assay [1] and 10.8 mg/kg in assay [2]. The IC50 is 0.71 µM in assay [3] and above 100 µM in assay [4]. In addition, in assay [3], the “Selectivity COX-1/COX-2 ratio” value is above 141.

Take `NS(=O)(=O)c1ccc(/C(=C2\CCOC2=O)c2ccc(F)cc2)cc1` [60 (E isomer), (E)-4-[(4-fluorophenyl)-(2-oxo-dihydrofuran-3-ylidene)methyl]benzenesulphonamide]: the ED50 in assay [1] was 1.7 mg/kg; in assay [2] it was 20.9 mg/kg. In addition, the 50% inhibitory concentration (IC50) in assay [3] was found to be 0.296 ± 0.107 µM; in assay [4] it was 81 µM. In addition, the “Selectivity COX-1/COX-2 ratio” value in assay [3] is 274.

In the case of `CS(=O)(=O)c1ccc(/C(=C2\CCOC2=O)c2cc(Cl)cc(Cl)c2)cc1` [70 (Z isomer), (Z)-3-[1-(3,5-dichlorophenyl)-1-(4-methanesulphonylphenyl)methylidene]-dihydro-furan-2-one], the ED50 was 5.5 mg/kg in assay [1] and 21.5 mg/kg in assay [2]. In addition, the concentration for half-maximal inhibition (IC50) in assay [3] was 0.225 µM; in assay [4] it was above 100 µM. Also, the “Selectivity COX-1/COX-2 ratio” value in assay [3] is above 444.

Turning to `CS(=O)(=O)c1ccc(/C(=C2\CCOC2=O)c2ccc(F)cc2F)cc1` [75 (Z isomer), (Z)-3-[1-(2,4-difluorophenyl)-1-(4-methanesulphonylphenyl)methylidene]-dihydro-furan-2-one], the ED50 in assay [1] turned out to be 4.6 mg/kg.

Take `CS(=O)(=O)c1ccc(/C(=C2\CCOC2=O)c2cc(F)cc(F)c2)cc1` [80 (Z isomer), (Z)-3-[1-(3,5-difluorophenyl)-1-(4-methanesulphonylphenyl)methylidene]-dihydro-furan-2-one]: the ED50 in assay [1] was 4.8 mg/kg; in assay [2], 5.8 mg/kg. Further, the 50% inhibitory concentration (IC50) was 0.518 µM in assay [3] and above 100 µM in assay [4]. In addition, the “Selectivity COX-1/COX-2 ratio” value in assay [3] is recorded as above 193.

As to `Cc1ccc(/C(=C2/CCOC2=O)c2ccc(S(C)(=O)=O)cc2)cc1` [85 (E isomer), (E)-3-[1-(4-methylphenyl)-1-(4-methanesulphonylphenyl)methylidene]-dihydro-furan-2-one], the ED50 in assay [1] and in assay [2] was above 30 mg/kg each time. The half-maximal inhibitory concentration (IC50) in assay [3] is 0.35 µM; in assay [4], above 100 µM. The “Selectivity COX-1/COX-2 ratio” value in assay [3] is listed as above 286.

For `CS(=O)(=O)c1ccc(/C(=C2\CCOC2=O)c2cccc(Br)c2)cc1` [90 (Z isomer), (Z)-3-[1-(3-bromophenyl)-1-(4-methanesulphonylphenyl)methylidene]-dihydro-furan-2-one], the ED50 in assay [1] came to 17.2 mg/kg. Moreover, in assay [3], the IC50 amounted to 0.458 µM and the “Selectivity COX-1/COX-2 ratio” value was above 218. In assay [4], the half-maximal inhibitory concentration (IC50) is above 100 µM.

In the case of `CS(=O)(=O)c1ccc(/C(=C2\CCOC2=O)c2ccc(Br)cc2)cc1` [100 (Z isomer), (Z)-3-[1-(4-bromophenyl)-1-(4-methanesulphonylphenyl)methylidene]-dihydro-furan-2-one], the ED50 in assay [1] turned out to be 3.6 mg/kg. Moreover, in assay [3], the IC50 was 0.166 µM and the “Selectivity COX-1/COX-2 ratio” value is 373. In assay [4], this compound gave an IC50 of 62 µM.
